Consider ten molecules from patent publication US20230089582A1, “1,2,4-TRIAZINE-3,5-DIONE COMPOUND, PREPARATION METHOD THEREFOR, AND APPLICATION THEREOF” (KPC PHARMACEUTICALS, INC, priority 2019, published 2023).

A short description of one data set: in vitro. As to conditions: microsomes, pH 7.4. The procedure:
The stop solution was an acetonitrile solution containing tolbutamide and propranolol (both internal standards).
Phosphate buffer was 100 mM K3PO4 (pH=7.4) buffer containing 3.3 mM MgCl2.
The liver microsome incubation system was in 100 mM phosphate buffer containing 0.2 mg/mL liver microsomal protein and 1 μM test substance/positive control.
80 μL of the mixture was transferred from the incubation system to 400 μL of stop solution to precipitate proteins, and 20 μL of NADPH regeneration system was added after vortexing as a 0 min sample point.
130 μL of NADPH regeneration system was added to the remaining 520 μL of protein drug mixture and mixed well to start incubation. The final incubation system was 650 μL, containing 0.2 mg/mL liver microsomal protein, 1 μM test substance/positive control, 1.3 mM NADP, 3.3 mM G-6-P and 0.6 U/mL G-6-PDH.

The next data set deals with T1, THRβ (Homo sapiens, UniProt P10828).
T1 construct: RXRα and GST-tagged THRβ-LBD
Briefly: THRβ binding assay (TR-FRET co-activating peptide recruitment). As to conditions: THRβ-LBD/RXRα, SRC2-2 co-activating peptide recruitment, agonistic effect. It is filed as biochemical. As to the method: Experimental method: In vitro analysis of the agonistic effect of the compounds on THRβ was performed using a time-resolved fluorescence resonance energy transfer co-activating peptide recruitment assay. The assay used Eu-anti-GST antibody, biotin-SRC2-2 co-activating peptide, streptavidin-d2, RXRα and GST-tagged THRβ-LBD. The Eu-anti-GST antibody indirectly labeled THRβ-LBD by binding to GST tag. Streptavidin-d2 indirectly labeled the SRC2-2 co-activating peptide by binding to biotin tag. In the presence of RXRα, THRβ-LBD can form a heterodimer THRβ-LBD/RXRα with it. The agonist bound to THRβ-LBD/RXRα and caused a conformational change of THRβ-LBD, thereby increasing the recruitment capacity of the heterodimer to the SRC2-2 co-activating peptide. Furthermore, the resulting decreased distance between the d2-labeled SRC2-2 co-activating peptide and the Eu-anti-GST antibody increased the […] signal. The agonistic ability of a compound can be assessed based on the effect of different concentrations of the compound on THRβ activity.
The detailed procedure is as follows.
a. 100× reference compound or compound was prepared with DMSO and diluted in 1:3.
e. The plates were centrifuged at 1000 rpm for 1 min and incubated for 4 h at room temperature shielded from light.

The target of another data set is THRα (Homo sapiens, UniProt P10827). Briefly: THRα binding assay (TR-FRET co-activating peptide recruitment). Type of data set: biochemical. To be noted: THRα instead of THRβ, agonistic effect.
Chain of THRα (P10827 163-410 isoform P10827-2 limits assumed, other chains not shown): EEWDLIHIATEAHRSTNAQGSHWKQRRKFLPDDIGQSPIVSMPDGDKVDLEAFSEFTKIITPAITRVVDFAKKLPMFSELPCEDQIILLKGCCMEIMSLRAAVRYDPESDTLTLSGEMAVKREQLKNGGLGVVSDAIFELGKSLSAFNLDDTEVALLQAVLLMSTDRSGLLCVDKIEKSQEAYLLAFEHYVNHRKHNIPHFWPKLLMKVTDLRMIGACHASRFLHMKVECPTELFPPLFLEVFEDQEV
Chain of THRα (P19793 whole entry partner, other chains not shown): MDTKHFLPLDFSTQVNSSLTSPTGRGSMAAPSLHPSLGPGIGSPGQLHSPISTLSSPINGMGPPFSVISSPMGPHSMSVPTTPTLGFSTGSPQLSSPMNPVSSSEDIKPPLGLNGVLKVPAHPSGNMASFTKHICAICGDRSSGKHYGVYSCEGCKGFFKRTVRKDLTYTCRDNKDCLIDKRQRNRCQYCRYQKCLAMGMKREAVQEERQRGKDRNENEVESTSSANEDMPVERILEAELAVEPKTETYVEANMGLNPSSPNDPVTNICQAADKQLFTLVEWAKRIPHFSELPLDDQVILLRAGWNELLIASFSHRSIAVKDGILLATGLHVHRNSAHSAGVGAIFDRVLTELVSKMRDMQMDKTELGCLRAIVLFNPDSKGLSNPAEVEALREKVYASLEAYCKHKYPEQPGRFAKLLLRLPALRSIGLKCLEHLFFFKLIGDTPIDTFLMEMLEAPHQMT

T1 sequence (P10828 217-461 limits assumed, other chains not shown): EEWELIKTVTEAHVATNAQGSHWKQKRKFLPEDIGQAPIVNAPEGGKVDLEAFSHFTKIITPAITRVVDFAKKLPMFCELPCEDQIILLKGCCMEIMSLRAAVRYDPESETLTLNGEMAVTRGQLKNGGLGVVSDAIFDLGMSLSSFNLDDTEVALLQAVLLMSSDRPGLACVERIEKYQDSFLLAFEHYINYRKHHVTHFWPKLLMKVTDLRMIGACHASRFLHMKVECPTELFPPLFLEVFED
T1 sequence (P19793 whole entry partner, other chains not shown, the tested form may be a part): as the sequence (P19793 whole entry partner, other chains not shown) above

For orientation: half-life means how long it takes for the measured level to halve. In general, microsomal CLint refers to the capacity of the preparation to metabolise the compound, expressed as a volume cleared per time. Low readings indicate slow turnover, high ones rapid turnover. `CC(C)c1cc(Oc2c(Cl)cc(-n3nc(C#N)c(=O)[nH]c3=O)cc2Cl)n[nH]c1=O` [Control compound 2, MGL-3196, reference compound]: the half-life at 1 μM was determined as 2 h in the data set “in vitro” (dog), 5.18 h in the data set “in vitro” (human), 4.96 h in the data set “in vitro” (monkey) and 12.8 h in “in vitro” (rat). Also, the microsomal CLint at 1 μM is 28.9 µL/min/mg in “in vitro” (dog), 11.2 µL/min/mg in “in vitro” (human), 11.6 µL/min/mg in “in vitro” (monkey) and 4.5 µL/min/mg in the data set “in vitro” (rat).

One may read the EC50 as the concentration that produces a half-maximal response. A low value points to higher potency in that assay. Usually Emax stands for the maximal effect, on the per cent scale that the assay sets. Consider `C=C(C)c1cc(Oc2c(Cl)cc(-n3nc(CF)c(=O)[nH]c3=O)cc2Cl)n[nH]c1=O` [Example 18, 2-(3,5-dichloro-4-((6-oxo-5-(prop-1-en-2-yl)-1,6-dihydropyridazin-3-yl)oxy)phenyl)-6-(fluoromethyl)-1,2,4-triazine-3,5(2H,4H)-dione], for which, on THRβ, the EC50 turned out to be 23.6 nM and the Emax amounted to 124%.

On THRβ, `CC(C)c1cc(Oc2c(Cl)cc(-n3nc(C4CC4)c(=O)[nH]c3=O)cc2Cl)n[nH]c1=O` [Example 19, 6-cyclopropyl-2-(3,5-dichloro-4-((5-isopropyl-6-oxo-1,6-dihydropyridazin-3-yl)oxy)phenyl)-1,2,4-triazine-3,5(2H,4H)-dione] came in with a half-maximal effective concentration (EC50) of 7250 nM and an Emax of 77.7%.

At THRβ, `O=c1[nH]nc(Oc2c(Cl)cc(-n3nc(CF)c(=O)[nH]c3=O)cc2Cl)cc1C1CCCCC1` [Example 9, 2-(3,5-dichloro-4-((5-cyclohexyl-6-oxo-1,6-dihydropyridazin-3-yl)oxy)phenyl)-6-(fluoromethyl)-1,2,4-triazine-3,5(2H,4H)-dione] registered a concentration giving a half-maximal response (EC50) of 101 nM and an Emax of 108%. At THRα, this molecule showed a half-maximal effective concentration (EC50) of 4260 nM and an Emax of 123%.

For `CC(C)c1cc(Oc2c(Cl)cc(-n3nc(O)c(=O)[nH]c3=O)cc2Cl)n[nH]c1=O` [Example 20, 2-(3,5-dichloro-4-((5-isopropyl-6-oxo-1,6-dihydropyridazin-3-yl)oxy)phenyl)-6-hydroxy-1,2,4-triazine-3,5(2H,4H)-dione], the half-maximal effective concentration (EC50) on THRβ was over 10000 nM.

Regarding `O=c1[nH]nc(Oc2c(Cl)cc(-n3nc(CF)c(=O)[nH]c3=O)cc2Cl)cc1C1CC1` [Example 12, 2-(3,5-dichloro-4-((5-cyclopropyl-6-oxo-1,6-dihydropyridazin-3-yl)oxy)phenyl)-6-(fluoromethyl)-1,2,4-triazine-3,5(2H,4H)-dione], the EC50 on THRβ is 71 nM; on THRα, 210 nM. The Emax on THRβ was determined as 105%; at THRα, 127%.

For `CC(C)(F)c1cc(Oc2c(Cl)cc(-n3nc(CF)c(=O)[nH]c3=O)cc2Cl)n[nH]c1=O` [Example 16, 3-(3,5-dichloro-4-((5-(2-fluoropropan-2-yl)-6-oxo-1,6-dihydropyridazin-3-yl)oxy)phenyl)-6-(fluoromethyl)-1,2,4-triazine-3,5(2H,4H)-dione], on THRβ, the concentration for a half-maximal effect (EC50) was determined as 164 nM and the Emax is 111%.

As for `O=c1[nH]nc(Oc2c(Cl)cc(-n3nc(CF)c(=O)[nH]c3=O)cc2Cl)cc1C1CCC1` [Example 14, 2-(3,5-dichloro-4-((5-cyclobutyl-6-oxo-1,6-dihydropyridazin-3-yl)oxy)phenyl)-6-(fluoromethyl)-1,2,4-triazine-3,5(2H,4H)-dione], the values for the EC50 on THRβ and on THRα were 42 nM and 230 nM, respectively. The Emax turned out to be 117% at THRβ and 124% on THRα.

As to `O=c1[nH]nc(Oc2c(Cl)cc(-n3nc(CF)c(=O)[nH]c3=O)cc2Cl)cc1C1CCCC1` [Example 10, 2-(3,5-dichloro-4-((5-cyclopentyl-6-oxo-1,6-dihydropyridazin-3-yl)oxy)phenyl)-6-(fluoromethyl)-1,2,4-triazine-3,5(2H,4H)-dione], at THRβ, the EC50 was determined as 94 nM and the maximal response (Emax) was found to be 110%. On THRα, this molecule gave a concentration for a half-maximal effect (EC50) of 1410 nM and a maximal effect (Emax) of 112%.

Turning to `CC(C)c1cc(Oc2c(Cl)cc(-n3nc(CF)c(=O)[nH]c3=O)cc2Cl)n[nH]c1=O` [Example 2], the concentration for a half-maximal effect (EC50) at THRβ stood at 5 nM; on THRα, 190 nM. The Emax on THRβ was 92.8%; at THRα, 107%. Also, the half-life at 1 μM stood at 4.4 h in the data set “in vitro” (dog); 17.1 h in “in vitro” (human); 8.92 h in the data set “in vitro” (monkey); 3.12 h in “in vitro” (mouse); 12.3 h in “in vitro” (rat). The microsomal CLint at 1 μM in “in vitro” (dog) is 13.1 µL/min/mg; in the data set “in vitro” (human), 3.4 µL/min/mg; in the data set “in vitro” (monkey), 6.5 µL/min/mg; in “in vitro” (mouse), 18.5 µL/min/mg; in “in vitro” (rat), 4.7 µL/min/mg.
